Measured values taken from patent US12297295B2, “Peptide for treating cancer” (Saint Leo University, priority 2019, dated 2025).
Like-named read-outs stand apart in the source and are kept apart here. One block for each substance: values may come before it. Where no end group is shown, it is not given here.

Columns and labels:
[1] = system: BT-549 breast cancer cells; details: for effect on viability of BT-549 breast cancer cells: two doubling times, CCK-8; for IC50: 96 h
Procedure: The effect of Peptides 7M and 7MM on BT-549 breast cancer cells (ATCC #HTB-122) was studied. Pierce Protein Transfection reagent (Thermo Scientific, 89850) was used to deliver peptide to the cultured cells. BT-549 breast cancer cells were transfected with 0.625-20 μM Peptide 7M or 1.25-10 μM Peptide 7MM for 3.5 hrs, incubated in a complete media for a duration of two doubling times (96 hours), and assessed for viability by using a CCK-8 colorimetric assay.
(§1) IC50 values were calculated from obtained equations that describe cell viability as a function of peptide concentration.

CMG helicase [2] = biological target: T1, CMG helicase (Xenopus laevis, UniProt Q91876); test: S phase arrested Xenopus egg extracts, chromatin RPA Western blot as readout for DNA helicase activity; format: biochemical; details: 250 μM peptide, 90 min incubation
T1 construct: from tissue; host or cells: S phase arrested Xenopus egg extracts (endogenous proteins on chromatin)
Procedure: The peptide of SEQ ID NO: 1 was synthesized using solid-phase synthesis. The product was purified using HPLC to a purity of about 99%. 250 μM of peptide Ex7 ([…]) (SEQ ID NO: 8), peptide 7N (circularized—KGEVLQMEDDLV) (SEQ ID NO: 9), peptide 7M (ISFQLMLCVLDYF) (SEQ ID NO: 1), or peptide 7C (IKLSPPMLLKEPYK) (SEQ ID NO: 10) were incubated in S phase arrested Xenopus egg extracts. Following a 90 min incubation, chromatin was isolated and probed by Western blotting for RPA protein as a readout for DNA helicase activity. Additionally, peptide 7MN (ISFQLML) (SEQ ID NO: 5), peptide 7MM (QLMLCVL) (SEQ ID NO: 2), and peptide 7MC (LCVLDYF) (SEQ ID NO: 6) were tested.
250 μM of each of peptides 7α (DLVISFQLMLCVLDYFIK) (SEQ ID NO: 14), 7α-ln (LVISFQLMLCVLDYFIK) (SEQ ID NO: 22), 7α-2n (VISFQLMLCVLDYFIK) (SEQ ID NO: 23), 7α-3n (ISFQLMLCVLDYFIK) (SEQ ID NO: 24), 7α-4n (SFQLMLCVLDYFIK) (SEQ ID NO: 25), 7α-5n (FQLMLCVLDYFIK) (SEQ ID NO: 26), 7α-6n (QLMLCVLDYFIK) (SEQ ID NO: 27), 7α-7n (LMLCVLDYFIK) (SEQ ID NO: 28), 7α-17c (DLVISFQLMLCVLDYF) (SEQ ID NO: 29), 7α-16c (DLVISFQLMLCVLDY) (SEQ ID NO: 30), 7α-15c (DVISFQLMLCVLD) (SEQ ID NO: 31), 7α-14c (DVISFQLMLCVL) (SEQ ID NO: 32), 7α-11c (DVISFQLML) (SEQ ID NO: 33) was incubated in S phase arrested Xenopus egg extracts. Following a 90 min incubation, chromatin was isolated and probed by Western blotting for RPA protein as a readout for DNA helicase activity.

cancer cells = test: Viability of cancer cells, summary statement; format: cell-based
CMG helicase [3] = biological target: T1, CMG helicase; test: S phase arrested Xenopus egg extracts, chromatin RPA Western blot as readout for DNA helicase activity; format: biochemical; details: extended from the above and other findings; no test described
[4] = system: M059J glioma cancer cells; details: for IC50: 48 h
Procedure: (§2) Pierce Protein Transfection reagent (Thermo Scientific, 89850) was used to deliver peptide to the cultured cells.
M059J glioma cancer cells (ATCC #CRL-2366) were transfected with 1.25-10 μM peptide 7α for 3.5 hrs, incubated in a complete media for a duration of two doubling times, and assessed for viability by using a CCK-8 colorimetric assay (Dojindo Molecular Technologies, Inc.).
M059J glioma cancer cells (ATCC #CRL-2366) were transfected with 1.25-10 μM peptide 7MM for 3.5 hrs, incubated in a complete media for a duration of two doubling times, and assessed for viability by using a CCK-8 colorimetric assay (Dojindo Molecular Technologies, Inc.).
as §1

[5] = system: SVG p12 immortalized astroglia cells
Procedure: as §1

HepG2 liver cancer cells = details: 96 h
Procedure: as §2, §1

[6] = system: PANC-1 pancreatic cancer cells; details: 48 h
Procedure: The effect of Peptides 7M and 7MM on PANC-1 pancreatic cancer cells (ATCC #CRL-1469) was studied. Pierce Protein Transfection reagent (Thermo Scientific, 89850) was used to deliver peptide to the cultured cells. PANC-1 pancreatic cancer cells were transfected with 0.625-10 μM Peptide 7M or Peptide 7MM for 3.5 hrs, incubated in a complete media for a duration of two doubling times (48 hours), and assessed for viability by using a CCK-8 colorimetric assay.
The effect of peptide 7α of viability of pancreatic cancer cells was studied. PANC-1 pancreatic cancer cells (ATCC #CRL-1469) were transfected with 1.25-10 μM peptide 7α for 3.5 hrs, incubated in a complete media for a duration of two doubling times, and assessed for viability by using a CCK-8 colorimetric assay (Dojindo Molecular Technologies, Inc.).
as §1

[7] = system: HMEC primary mammary epithelial normal cells
Procedure: HMEC mammary epithelial cells (ATCC #PCS-600-010) were transfected with 1.25-20 μM peptide 7α for 3.5 hrs, incubated in a complete media for a duration of two doubling times, and assessed for viability by using a CCK-8 colorimetric assay (Dojindo Molecular Technologies, Inc.).
HMEC primary normal epithelial breast cells (ATCC #PCS-600-010) were transfected with 1.25-10 μM peptide 7MM for 3.5 hrs, incubated in a complete media for a duration of two doubling times, and assessed for viability by using a CCK-8 colorimetric assay (Dojindo Molecular Technologies, Inc.).
as §1

[8] = system: THLE-3 immortalized normal liver cells
Procedure: as §1

[9] = system: HLF normal primary lung fibroblasts
Procedure: The effect of peptide 7α of viability of HLF normal primary lung fibroblasts was studied. HLF normal primary lung fibroblasts (ATCC #PCS-201-013) were transfected with 1.25-10 μM peptide 7α for 3.5 hrs, incubated in a complete media for a duration of two doubling times, and assessed for viability by using a CCK-8 colorimetric assay (Dojindo Molecular Technologies, Inc.).
The effect of peptide 7MM of viability of normal lung cells was studied. HLF normal primary lung fibroblasts (ATCC #PC S-201-013) were transfected with 1.25-10 μM peptide 7MM for 3.5 hrs, incubated in a complete media for a duration of two doubling times, and assessed for viability by using a CCK-8 colorimetric assay (Dojindo Molecular Technologies, Inc.).
as §1

[10] = system: Hs 766T pancreatic cancer cells
Procedure: as §1

[11] = system: hTERT-HPNE immortalized normal pancreatic cells
Procedure: as §1

[12] = system: DU145 prostate cancer cells
Procedure: DU145 prostate cancer cells (ATCC #HTB-81) were transfected with 1.25-10 μM peptide 7α for 3.5 hrs, incubated in a complete media for a duration of two doubling times, and assessed for viability by using a CCK-8 colorimetric assay (Dojindo Molecular Technologies, Inc.).
DU145 prostate cancer cells (ATCC #HTB-81) were transfected with 1.25-10 μM peptide 7MM for 3.5 hrs, incubated in a complete media for a duration of two doubling times, and assessed for viability by using a CCK-8 colorimetric assay (Dojindo Molecular Technologies, Inc.).
as §1

[13] = system: PC3 prostate cancer cells
Procedure: The effect of peptide 7α of viability of prostate cancer cells was studied. PC3 prostate cancer cells (ATCC #CRL-1435) were transfected with 1.25-10 μM peptide 7α for 3.5 hrs, incubated in a complete media for a duration of two doubling times, and assessed for viability by using a CCK-8 colorimetric assay (Dojindo Molecular Technologies, Inc.).
The effect of peptide 7MM of viability of prostate cancer cells was studied. PC3 prostate cancer cells (ATCC #CRL-1435) were transfected with 1.25-10 μM peptide 7MM for 3.5 hrs, incubated in a complete media for a duration of two doubling times, and assessed for viability by using a CCK-8 colorimetric assay (Dojindo Molecular Technologies, Inc.).
as §1

[14] = system: HCT-116 colorectal cancer cells
Procedure: The effect of peptide 7MM of viability of colorectal cancer cells was studied. HCT-116 colorectal cancer cells (ATCC #CCL-247) were transfected with 1.25-10 μM peptide 7MM for 3.5 hrs, incubated in a complete media for a duration of two doubling times, and assessed for viability by using a CCK-8 colorimetric assay (Dojindo Molecular Technologies, Inc.).
as §1

[15] = system: U-2 OS osteosarcoma cancer cells
Procedure: as §1

[16] = system: HT1080 fibrosarcoma cancer cells
Procedure: as §1

[17] = transfected 1.25-10 μM for 3.5 hrs
[18] = conclusion drawn from Examples 39, 41, 42 and FIGS. 42, 44, 45
[19] = transfected 2.5 and 5.0 μM for 3.5 hrs
[20] = extended from the above and other findings, no test described
[21] = transfected 1.25-10 μM for 3.5 hrs, two doubling times, CCK-8

Procedure for A549 lung cancer cells: as §1
Procedure for H596 lung cancer cells: as §1

Substance: DLVISFALMLCVLDYFIK [7α-Q7A]
effect on viability of BT-549 breast cancer cells [1, 17]: inhibit viability of breast cancer cells

Substance: DLVISFQGMLCVLDYFIK [7α-L8G]
effect on viability of BT-549 breast cancer cells [1, 17]: inhibit viability of breast cancer cells

Substance: DVISFQLML (DLVISFQLML; listed as Homo sapiens) [7α-11c]
inhibition of CMG helicase in vitro (chromatin RPA Western blot) (CMG helicase [2]): inhibit CMG helicase in vitro | effect on viability of cancer cells (cancer cells; [18]): decrease viability of cancer cells | effect on viability of BT-549 breast cancer cells [1, 19]: decrease viability

Substance: FQLMLCVLDYFIK (listed as Homo sapiens) [7α-5n]
inhibition of CMG helicase in vitro (chromatin RPA Western blot) (CMG helicase [2]): inhibit CMG helicase in vitro | effect on viability of cancer cells (cancer cells; [18]): decrease viability of cancer cells

Substance: GMLCVL [7MM6-G2]
effect on viability of cancer cells (cancer cells; [20]): decrease viability of cancer cells | inhibition of CMG helicase (CMG helicase [3]): inhibit CMG helicase

Substance: ISFQLMLCVLDYF [7M, ISFQLMLCVLDYF]
IC50 [1]: 6.6 µM | IC50 [4]: 6.8 µM | IC50 [5]: 109 µM | IC50 (HepG2 liver cancer cells): 10 µM | IC50 [6]: 7.4 µM

Substance: ISFQLMLCVLDYFIK (listed as Homo sapiens) [7α-3n]
inhibition of CMG helicase in vitro (chromatin RPA Western blot) (CMG helicase [2]): inhibit CMG helicase in vitro | effect on viability of cancer cells (cancer cells; [18]): decrease viability of cancer cells

Substance: LMGCVL [7MM6-G4]
effect on viability of cancer cells (cancer cells; [20]): decrease viability of cancer cells | inhibition of CMG helicase (CMG helicase [3]): inhibit CMG helicase

Substance: LMGCVLD [7MM6-G4-D]
effect on viability of cancer cells (cancer cells; [20]): decrease viability of cancer cells | inhibition of CMG helicase (CMG helicase [3]): inhibit CMG helicase

Substance: LMLCVL [7MM6]
effect on viability of cancer cells (cancer cells; [20]): decrease viability of cancer cells | inhibition of CMG helicase (CMG helicase [3]): inhibit CMG helicase

Substance: LMLCVLD [7MM6-D]
effect on viability of cancer cells (cancer cells; [20]): decrease viability of cancer cells | inhibition of CMG helicase (CMG helicase [3]): inhibit CMG helicase

Substance: QLMLCVL [7MM, QLMLCVL]
IC50 [1]: 6.8 µM | IC50 [7]: 77.5 µM | effect on viability of HMEC normal breast cells [7, 21]: does not affect viability | IC50 [4]: 7.7 µM | effect on viability of M059J glioma cells [4, 21]: decreases viability | IC50 [5]: 60.4 µM | effect on viability of SVG p12 normal glial cells [5, 21]: does not affect viability | IC50 (HepG2 liver cancer cells): 14.2 µM | IC50 [8]: 100 µM | effect on viability of THLE-3 normal liver cells [8, 21]: does not affect viability | IC50 (A549 lung cancer cells): 15.6 µM | effect on viability of A549 lung cancer cells (A549 lung cancer cells; [21]): decreases viability | IC50 (H596 lung cancer cells): 7.6 µM | effect on viability of H596 lung cancer cells (H596 lung cancer cells; [21]): decreases viability | IC50 [9]: 110 µM | effect on viability of HLF normal primary lung fibroblasts [9, 21]: does not affect viability | IC50 [6]: 10.1 µM | IC50 [10]: 5.7 µM | effect on viability of Hs 766T pancreatic cancer cells [10, 21]: decreases viability | IC50 [11]: 79.9 µM | effect on viability of hTERT-HPNE normal pancreatic cells [11, 21]: does not affect viability | IC50 [12]: 10.6 µM | effect on viability of DU145 prostate cancer cells [12, 21]: decreases viability | IC50 [13]: 13 µM | effect on viability of PC3 prostate cancer cells [13, 21]: decreases viability | IC50 [14]: 4.9 µM | effect on viability of HCT-116 colorectal cancer cells [14, 21]: decreases viability | IC50 [15]: 9.6 µM | effect on viability of U-2 OS osteosarcoma cancer cells [15, 21]: decreases viability | IC50 [16]: 9.7 µM | effect on viability of HT1080 fibrosarcoma cancer cells [16, 21]: decreases viability

Substance: QLMLCVLD [7MM-D]
effect on viability of cancer cells (cancer cells; [20]): decrease viability of cancer cells | inhibition of CMG helicase (CMG helicase [3]): inhibit CMG helicase

Substance: QLMLCVLDYFIK (listed as Homo sapiens) [7α-6n]
inhibition of CMG helicase in vitro (chromatin RPA Western blot) (CMG helicase [2]): inhibit CMG helicase in vitro | effect on viability of cancer cells (cancer cells; [18]): decrease viability of cancer cells | effect on viability of BT-549 breast cancer cells [1, 19]: decrease viability

Substance: SFQLMLCVLDYFIK (listed as Homo sapiens) [7α-4n]
inhibition of CMG helicase in vitro (chromatin RPA Western blot) (CMG helicase [2]): inhibit CMG helicase in vitro | effect on viability of cancer cells (cancer cells; [18]): decrease viability of cancer cells

Substance: VISFQLMLCVLDYFIK (listed as Homo sapiens) [7α-2n]
inhibition of CMG helicase in vitro (chromatin RPA Western blot) (CMG helicase [2]): inhibit CMG helicase in vitro | effect on viability of cancer cells (cancer cells; [18]): decrease viability of cancer cells

Further lines, with some results ahead:

inhibition of CMG helicase in vitro (chromatin RPA Western blot) (CMG helicase [2]): inhibit CMG helicase in vitro
Substance: DLVISFQLMLCVLDY (listed as Homo sapiens) [7α-16c]
effect on viability of cancer cells (cancer cells; [18]): decrease viability of cancer cells

inhibition of CMG helicase in vitro (chromatin RPA Western blot) (CMG helicase [2]): inhibit CMG helicase in vitro
Substance: DLVISFQLMLCVLDYF (listed as Homo sapiens) [7α-17c]
effect on viability of cancer cells (cancer cells; [18]): decrease viability of cancer cells

inhibition of CMG helicase in vitro (chromatin RPA Western blot) (CMG helicase [2]): inhibit CMG helicase in vitro
Substance: DVISFQLMLCVL (DLVISFQLMLCVL; listed as Homo sapiens) [7α-14c]
effect on viability of cancer cells (cancer cells; [18]): decrease viability of cancer cells | effect on viability of BT-549 breast cancer cells [1, 19]: decrease viability

inhibition of CMG helicase in vitro (chromatin RPA Western blot) (CMG helicase [2]): inhibit CMG helicase in vitro
Substance: DVISFQLMLCVLD (DLVISFQLMLCVLD; listed as Homo sapiens) [7α-15c]
effect on viability of cancer cells (cancer cells; [18]): decrease viability of cancer cells | effect on viability of BT-549 breast cancer cells [1, 19]: decrease viability

inhibition of CMG helicase (CMG helicase [3]): inhibit CMG helicase
Substance: GMLCVLD [7MM6-G2-D]
effect on viability of cancer cells (cancer cells; [20]): decrease viability of cancer cells

inhibition of CMG helicase in vitro (chromatin RPA Western blot) (CMG helicase [2]): inhibit CMG helicase in vitro
Substance: LMLCVLDYFIK (listed as Homo sapiens) [7α-7n]
effect on viability of cancer cells (cancer cells; [18]): decrease viability of cancer cells | effect on viability of BT-549 breast cancer cells [1, 19]: decrease viability

inhibition of CMG helicase in vitro (chromatin RPA Western blot) (CMG helicase [2]): inhibit CMG helicase in vitro
Substance: LVISFQLMLCVLDYFIK (listed as Homo sapiens) [7α-1n]
effect on viability of cancer cells (cancer cells; [18]): decrease viability of cancer cells

inhibition of CMG helicase (CMG helicase [3]): inhibit CMG helicase
Substance: QGMLCVL [7MM-G2]
effect on viability of cancer cells (cancer cells; [20]): decrease viability of cancer cells

inhibition of CMG helicase (CMG helicase [3]): inhibit CMG helicase
Substance: QLMGCVL [7MM-G4]
effect on viability of cancer cells (cancer cells; [20]): decrease viability of cancer cells
